According to US20260137703A1, “2-AMINO-PYRIDO[2,3-D]PYRIMIDIN-7(8H)-ONE AND 7-AMINO-1-PYRIMIDO[4,5-D]PYRIMIDIN-2(1 H)-ONE DERIVATIVES AS EGFR INHIBITORS FOR THE TREATMENT OF CANCER” (Cancer Research Technology Limited, priority 2022, published 2026):

Key:
[1] = biological target: T1, Phospho-EGFR (Tyr1068) in H1975 cells (Homo sapiens, UniProt P00533, L858R/T790M); test: HTRF pEGFR/total EGFR in H1975 cells; assay type: cell-based; conditions: ratio pEGFR/total EGFR, compound 3 hours
T1 construct: host or cells: H1975
Summary of the method: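 Readout is the phospho-EGFR (Tyr1068) to total EGFR HTRF ratio, expressed relative to 0 μM control. Adhered H1975 cells were exposed to compound for 3 hours at 0.1% DMSO, duplicate wells, then lysed for 30 min at room temperature before two-wavelength fluorescence reading.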

[2] = biological target: T2, Phospho-EGFR (Tyr1068) in H1975 C797S cells (CRISPR-edited EGFR C797S) (Homo sapiens, UniProt P00533, C797S/L858R/T790M); test: HTRF pEGFR/total EGFR in H1975 C797S cells; assay type: cell-based; conditions: ratio pEGFR/total EGFR, compound 3 hours
T2 construct: host or cells: H1975 C797S (CRISPR-edited)
Summary of the method: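 Readout is the HTRF-measured Tyr1068 phospho-EGFR to total EGFR ratio, normalised to the 0 μM control as percent. Preceding this, CRISPR-edited H1975 C797S cells, plated 24 h earlier, were exposed 3 h to duplicate compound doses in medium with 0.1% DMSO, then lysed on a shaker.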

[3] = biological target: T3, Phospho-EGFR (Tyr1068) in A431 cells (Homo sapiens, UniProt P00533); test: HTRF pEGFR/total EGFR in A431 cells with EGF stimulation; assay type: cell-based; conditions: ratio pEGFR/total EGFR, compound 2.5 hours then 100 ng/ml EGF 30 mins
T3 construct: endogenous in cells; host or cells: A431
Summary of the method: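 Values are pEGFR(Tyr1068)/total EGFR HTRF ratios (665/620 nm) given as percent of the 0 μM control. Adhered A431 cells (20,000 per well, 24 h) had 2.5 h compound pretreatment in 0.1% DMSO, then 30 min of 100 ng/ml EGF before lysis.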

[4] = biological target: CtermHisTag-mEGFR Wild type (Homo sapiens, UniProt P00533); test: biochemical
Sequence of CtermHisTag-mEGFR Wild type (P00533 whole entry): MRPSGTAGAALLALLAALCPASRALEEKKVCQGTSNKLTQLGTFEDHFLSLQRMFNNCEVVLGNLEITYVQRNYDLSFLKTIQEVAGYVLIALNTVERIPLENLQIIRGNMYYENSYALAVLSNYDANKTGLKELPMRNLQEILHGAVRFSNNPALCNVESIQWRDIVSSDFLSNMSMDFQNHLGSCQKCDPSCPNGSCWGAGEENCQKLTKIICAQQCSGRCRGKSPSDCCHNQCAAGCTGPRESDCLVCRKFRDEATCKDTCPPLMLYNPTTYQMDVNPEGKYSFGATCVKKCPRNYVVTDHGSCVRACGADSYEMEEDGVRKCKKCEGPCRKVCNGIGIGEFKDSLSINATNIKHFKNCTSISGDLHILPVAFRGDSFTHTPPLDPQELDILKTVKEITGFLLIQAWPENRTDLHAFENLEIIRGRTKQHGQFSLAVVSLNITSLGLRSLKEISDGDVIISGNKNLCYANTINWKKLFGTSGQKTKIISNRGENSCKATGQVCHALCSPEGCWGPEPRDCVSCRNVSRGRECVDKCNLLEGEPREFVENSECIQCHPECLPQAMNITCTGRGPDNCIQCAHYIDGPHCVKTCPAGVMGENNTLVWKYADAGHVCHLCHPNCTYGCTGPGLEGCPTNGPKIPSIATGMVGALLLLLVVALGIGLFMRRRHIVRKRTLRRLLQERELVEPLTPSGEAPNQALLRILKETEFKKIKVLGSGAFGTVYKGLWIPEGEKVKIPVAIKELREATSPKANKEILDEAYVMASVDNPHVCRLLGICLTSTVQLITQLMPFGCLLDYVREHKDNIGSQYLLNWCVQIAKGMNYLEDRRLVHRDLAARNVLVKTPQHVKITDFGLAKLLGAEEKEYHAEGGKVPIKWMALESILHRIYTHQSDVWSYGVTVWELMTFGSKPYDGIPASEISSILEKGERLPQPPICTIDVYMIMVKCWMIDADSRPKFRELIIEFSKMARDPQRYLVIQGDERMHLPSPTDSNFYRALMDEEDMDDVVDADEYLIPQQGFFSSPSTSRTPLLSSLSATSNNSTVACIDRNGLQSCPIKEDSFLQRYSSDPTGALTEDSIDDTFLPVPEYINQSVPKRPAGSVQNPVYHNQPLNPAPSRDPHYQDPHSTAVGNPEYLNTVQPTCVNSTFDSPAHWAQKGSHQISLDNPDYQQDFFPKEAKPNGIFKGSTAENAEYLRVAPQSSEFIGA

T2 sequence (P00533 25-1210 T790M/C797S/L858R): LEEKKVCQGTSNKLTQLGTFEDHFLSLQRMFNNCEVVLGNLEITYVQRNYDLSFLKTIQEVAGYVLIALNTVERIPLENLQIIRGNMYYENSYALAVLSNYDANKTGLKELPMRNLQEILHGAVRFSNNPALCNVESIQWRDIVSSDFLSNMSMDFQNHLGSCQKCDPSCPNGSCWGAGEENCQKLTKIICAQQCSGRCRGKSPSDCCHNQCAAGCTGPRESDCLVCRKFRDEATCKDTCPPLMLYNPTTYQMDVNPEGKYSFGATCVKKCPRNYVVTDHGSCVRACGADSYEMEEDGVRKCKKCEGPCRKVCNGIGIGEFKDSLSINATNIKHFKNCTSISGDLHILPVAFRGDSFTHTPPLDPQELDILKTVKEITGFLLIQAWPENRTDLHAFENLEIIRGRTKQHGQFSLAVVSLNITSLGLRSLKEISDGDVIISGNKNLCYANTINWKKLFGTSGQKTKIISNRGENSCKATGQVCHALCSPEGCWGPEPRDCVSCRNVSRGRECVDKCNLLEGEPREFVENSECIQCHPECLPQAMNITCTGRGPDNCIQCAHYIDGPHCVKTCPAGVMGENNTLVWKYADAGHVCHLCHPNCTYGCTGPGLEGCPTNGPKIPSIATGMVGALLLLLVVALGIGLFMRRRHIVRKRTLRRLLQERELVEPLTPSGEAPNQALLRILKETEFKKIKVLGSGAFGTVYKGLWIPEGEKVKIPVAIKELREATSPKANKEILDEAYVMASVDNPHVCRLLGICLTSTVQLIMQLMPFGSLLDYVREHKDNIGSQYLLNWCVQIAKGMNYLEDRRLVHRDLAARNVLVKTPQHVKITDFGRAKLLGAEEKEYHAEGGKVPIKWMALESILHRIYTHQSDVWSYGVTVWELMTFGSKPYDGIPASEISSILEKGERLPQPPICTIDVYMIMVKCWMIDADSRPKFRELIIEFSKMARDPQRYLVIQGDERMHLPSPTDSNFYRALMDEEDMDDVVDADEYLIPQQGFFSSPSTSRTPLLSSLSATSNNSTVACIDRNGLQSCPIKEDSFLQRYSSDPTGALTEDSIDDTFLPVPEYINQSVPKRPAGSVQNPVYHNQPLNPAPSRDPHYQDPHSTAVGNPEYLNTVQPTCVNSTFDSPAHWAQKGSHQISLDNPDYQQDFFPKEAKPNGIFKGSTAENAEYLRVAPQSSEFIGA
T1 sequence (P00533 25-1210 T790M/L858R): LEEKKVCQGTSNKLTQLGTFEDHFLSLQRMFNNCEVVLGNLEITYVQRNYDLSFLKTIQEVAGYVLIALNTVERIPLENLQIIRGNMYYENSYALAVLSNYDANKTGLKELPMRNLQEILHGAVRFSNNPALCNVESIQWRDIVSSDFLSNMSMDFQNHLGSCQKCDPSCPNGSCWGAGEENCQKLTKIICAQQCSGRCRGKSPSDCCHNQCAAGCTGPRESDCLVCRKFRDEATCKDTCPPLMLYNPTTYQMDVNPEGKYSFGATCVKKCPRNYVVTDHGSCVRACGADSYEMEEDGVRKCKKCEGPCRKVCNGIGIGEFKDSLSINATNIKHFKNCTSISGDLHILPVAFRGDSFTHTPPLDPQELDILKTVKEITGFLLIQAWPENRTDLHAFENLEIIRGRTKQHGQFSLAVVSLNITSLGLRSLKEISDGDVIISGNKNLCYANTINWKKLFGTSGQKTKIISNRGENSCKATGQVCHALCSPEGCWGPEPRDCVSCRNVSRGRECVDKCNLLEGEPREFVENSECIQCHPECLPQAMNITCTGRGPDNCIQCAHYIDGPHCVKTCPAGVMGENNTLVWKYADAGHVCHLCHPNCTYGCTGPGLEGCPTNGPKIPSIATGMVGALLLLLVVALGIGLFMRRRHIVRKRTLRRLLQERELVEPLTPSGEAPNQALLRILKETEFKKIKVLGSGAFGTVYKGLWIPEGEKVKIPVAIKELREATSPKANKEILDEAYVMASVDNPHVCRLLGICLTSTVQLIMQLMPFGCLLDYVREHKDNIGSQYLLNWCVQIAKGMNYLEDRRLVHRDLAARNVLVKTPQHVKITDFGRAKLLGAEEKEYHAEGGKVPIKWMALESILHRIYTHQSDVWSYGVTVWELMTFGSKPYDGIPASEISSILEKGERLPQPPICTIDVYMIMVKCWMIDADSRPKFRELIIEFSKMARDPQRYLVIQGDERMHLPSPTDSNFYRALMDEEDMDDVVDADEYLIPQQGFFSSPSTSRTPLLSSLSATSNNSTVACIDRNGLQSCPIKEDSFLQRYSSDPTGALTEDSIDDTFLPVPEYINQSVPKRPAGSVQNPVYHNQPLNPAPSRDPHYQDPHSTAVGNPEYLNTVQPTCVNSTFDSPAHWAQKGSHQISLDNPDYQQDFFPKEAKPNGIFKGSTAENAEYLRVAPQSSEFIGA
T3 sequence (P00533 25-1210): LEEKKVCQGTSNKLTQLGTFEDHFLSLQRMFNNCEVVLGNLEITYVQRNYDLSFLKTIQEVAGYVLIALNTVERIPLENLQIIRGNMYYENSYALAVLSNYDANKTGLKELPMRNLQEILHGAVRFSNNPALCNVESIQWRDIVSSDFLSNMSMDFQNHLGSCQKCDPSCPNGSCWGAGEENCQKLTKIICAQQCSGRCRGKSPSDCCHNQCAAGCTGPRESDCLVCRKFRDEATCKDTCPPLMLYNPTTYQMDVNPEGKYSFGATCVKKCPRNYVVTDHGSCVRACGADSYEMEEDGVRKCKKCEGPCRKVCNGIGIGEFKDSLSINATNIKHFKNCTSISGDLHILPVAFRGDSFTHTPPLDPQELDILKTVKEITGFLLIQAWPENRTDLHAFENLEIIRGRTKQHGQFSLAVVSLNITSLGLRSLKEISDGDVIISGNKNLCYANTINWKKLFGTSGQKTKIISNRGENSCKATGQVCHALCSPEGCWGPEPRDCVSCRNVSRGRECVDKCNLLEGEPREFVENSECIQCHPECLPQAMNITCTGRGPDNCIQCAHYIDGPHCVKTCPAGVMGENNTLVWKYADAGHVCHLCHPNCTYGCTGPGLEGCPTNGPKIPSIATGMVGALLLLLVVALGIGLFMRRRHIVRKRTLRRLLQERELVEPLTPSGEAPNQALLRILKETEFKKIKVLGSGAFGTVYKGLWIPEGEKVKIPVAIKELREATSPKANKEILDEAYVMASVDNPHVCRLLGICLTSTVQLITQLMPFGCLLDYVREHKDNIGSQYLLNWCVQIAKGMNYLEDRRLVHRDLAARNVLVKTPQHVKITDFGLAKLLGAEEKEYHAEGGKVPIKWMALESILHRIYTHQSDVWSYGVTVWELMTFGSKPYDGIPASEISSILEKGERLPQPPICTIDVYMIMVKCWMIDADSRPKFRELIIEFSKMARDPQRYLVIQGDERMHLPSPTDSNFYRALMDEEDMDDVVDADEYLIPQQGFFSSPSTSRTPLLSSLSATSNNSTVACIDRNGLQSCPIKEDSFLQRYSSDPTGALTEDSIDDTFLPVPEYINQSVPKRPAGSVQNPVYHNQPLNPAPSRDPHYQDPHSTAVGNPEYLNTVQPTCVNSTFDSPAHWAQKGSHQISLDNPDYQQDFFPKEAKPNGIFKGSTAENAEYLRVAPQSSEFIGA

SMILES	IC50 [1]	IC50 [2]	IC50 [3]	IC50 [4]
C#Cc1cc(=O)n([C@H]2CC[C@@H](NC(=O)CN(C)C)CC2)c2nc(Nc3ccccc3OC)ncc12 [Example 90, 2-(Dimethylamino)-N-[(1s,4s)-4-{5-ethynyl-2-[(2-methoxyphenyl)amino]-7-oxopyrido[2,3-d]pyrimidin-8-yl}cyclohexyl]acetamide]	1 to 3 µM	> 3 µM	> 3 µM	1 to 10 µM
C#Cc1cc(=O)n([C@H]2CC[C@@H](NC(=O)Cc3cn[nH]c3)CC2)c2nc(Nc3ccc(N4CCN(C)CC4)cc3)ncc12 [Example 91, 2-(1H-Pyrazol-4-yl)-N-[(1s,4s)-4-(5-ethynyl-2-{[4-(4-methylpiperazin-1-yl)phenyl]amino}-7-oxopyrido[2,3-d]pyrimidin-8-yl)cyclohexyl]acetamide]	0.5 to 1 µM	1 to 3 µM	> 3 µM	< 1 µM
C#Cc1cc(=O)n([C@H]2CC[C@@H](NC(=O)CCC(=O)OC)CC2)c2nc(Nc3ccc(N4CCN(C)CC4)cc3)ncc12 [Example 92, Methyl 4-(((1s,4s)-4-(5-ethynyl-2-((4-(4-methylpiperazin-1-yl)phenyl)amino)-7-oxopyrido[2,3-d]pyrimidin-8(7H)-yl)cyclohexyl)amino)-4-oxobutanoate]	> 3 µM	> 3 µM	> 3 µM	1 to 10 µM
C#Cc1cc(=O)n([C@H]2CC[C@@H](NC(=O)CCC(=O)N(C)C)CC2)c2nc(Nc3ccc(N4CCN(C)CC4)cc3)ncc12 [Example 93, N,N-Dimethyl-N′-[(1s,4s)-4-(5-ethynyl-2-{[4-(4-methylpiperazin-1-yl)phenyl]amino}-7-oxopyrido[2,3-d]pyrimidin-8-yl)cyclohexyl]succinamide]	0.5 to 1 µM	1 to 3 µM	> 3 µM	1 to 10 µM
C#Cc1cc(=O)n([C@H]2CC[C@@H](NC(=O)CC(=O)NC)CC2)c2nc(Nc3ccc(N4CCN(C)CC4)cc3)ncc12 [Example 94, N-Methyl-N′-[(1s,4s)-4-(5-ethynyl-2-{[4-(4-methylpiperazin-1-yl)phenyl]amino}-7-oxopyrido[2,3-d]pyrimidin-8-yl)cyclohexyl]propanediamide]	0.5 to 1 µM	0.5 to 1 µM	> 3 µM	1 to 10 µM
C#Cc1cc(=O)n([C@H]2CC[C@@H](NC(=O)CC(=O)N(C)C)CC2)c2nc(Nc3ccc(N4CCN(C)CC4)cc3)ncc12 [Example 95, N,N-Dimethyl-N′-[(1s,4s)-4-(5-ethynyl-2-{[4-(4-methylpiperazin-1-yl)phenyl]amino}-7-oxopyrido[2,3-d]pyrimidin-8-yl)cyclohexyl]propanediamide]	< 0.5 µM	< 0.5 µM	> 3 µM	1 to 10 µM
C#Cc1cc(=O)n([C@H]2CC[C@@H](NC(=O)CCN(C)C)CC2)c2nc(Nc3ccc(N4CCN(C)CC4)cc3)ncc12 [Example 96, 3-(Dimethylamino)-N-[(1s,4s)-4-(5-ethynyl-2-{[4-(4-methylpiperazin-1-yl)phenyl]amino}-7-oxopyrido[2,3-d]pyrimidin-8-yl)cyclohexyl]propanamide]	1 to 3 µM	> 3 µM	> 3 µM	< 1 µM
C#Cc1cc(=O)n([C@H]2CC[C@@H](NC(=O)CCCN(C)C)CC2)c2nc(Nc3ccc(N4CCN(C)CC4)cc3)ncc12 [Example 97, 4-(Dimethylamino)-N-[(1s,4s)-4-(5-ethynyl-2-{[4-(4-methylpiperazin-1-yl)phenyl]amino}-7-oxopyrido[2,3-d]pyrimidin-8-yl)cyclohexyl]butanamide]	1 to 3 µM	1 to 3 µM	> 3 µM	> 10 µM
C#Cc1cc(=O)n([C@H]2CC[C@@H](NC(=O)CCC(=O)NC)CC2)c2nc(Nc3ccc(N4CCN(C)CC4)cc3)ncc12 [Example 98, N-Methyl-N′-[(1s,4s)-4-(5-ethynyl-2-{[4-(4-methylpiperazin-1-yl)phenyl]amino}-7-oxopyrido[2,3-d]pyrimidin-8-yl)cyclohexyl]succinamide]	> 3 µM	> 3 µM	> 3 µM	1 to 10 µM
